What was measured:
[1] = biological target: T1, Broad substrate specificity ATP-binding cassette transporter ABCG2 (Homo sapiens, UniProt Q9UNQ0); assay: TP_TRANSPORTER: intracellular concentration of the drug is lower compared with IGROV1 in MX3 cells; assay type: functional, cell-based
T1 sequence (Q9UNQ0 whole entry): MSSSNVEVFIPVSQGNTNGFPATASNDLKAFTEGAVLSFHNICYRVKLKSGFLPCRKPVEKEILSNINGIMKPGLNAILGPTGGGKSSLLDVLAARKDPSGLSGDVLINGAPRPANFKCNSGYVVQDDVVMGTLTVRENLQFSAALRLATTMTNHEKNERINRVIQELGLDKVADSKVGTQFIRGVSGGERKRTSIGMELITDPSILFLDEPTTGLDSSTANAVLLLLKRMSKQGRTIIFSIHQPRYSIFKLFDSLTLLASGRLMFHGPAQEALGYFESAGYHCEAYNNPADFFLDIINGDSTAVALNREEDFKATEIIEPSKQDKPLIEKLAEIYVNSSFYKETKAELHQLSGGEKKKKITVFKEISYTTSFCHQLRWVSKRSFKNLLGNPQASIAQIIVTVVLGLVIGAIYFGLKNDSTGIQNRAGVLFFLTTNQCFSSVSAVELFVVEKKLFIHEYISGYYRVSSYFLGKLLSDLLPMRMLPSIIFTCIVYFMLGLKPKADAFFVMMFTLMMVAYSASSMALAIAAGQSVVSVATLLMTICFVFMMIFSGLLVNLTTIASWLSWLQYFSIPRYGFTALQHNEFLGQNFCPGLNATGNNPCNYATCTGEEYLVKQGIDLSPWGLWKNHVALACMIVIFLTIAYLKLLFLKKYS

[2] = biological target: T1, Broad substrate specificity ATP-binding cassette transporter ABCG2; assay: TP_TRANSPORTER: intracellular concentration of the drug is lower compared with IGROV1 in T8 cells; assay type: functional, cell-based

Activity [1]: substrate [+] | Activity [2]: substrate [+]
Compound: CC[C@@]1(O)C(=O)OCc2c1cc1n(c2=O)Cc2cc3c(CN(C)C)c(O)ccc3nc2-1 [TOPOTECAN]
